Here are results for 1 molecule from publication PMC4197335, “Cancer-Selective Targeting of the NF-κB Survival Pathway with GADD45β/MKK7 Inhibitors” (Cancer Cell, 2014).

Each structure is given as a SMILES string. In brackets after ≈: the same amount, converted by molar mass. Like-named read-outs stand apart in the source and are kept apart here. Some results are limits rather than exact numbers.

Data set [1] relates to mouse lymph node (LN) cells. The experiment in a line: cells. Particulars: read-out: IC50 (normal; lymph node cells); at 48 hr. The text has this:
(§1) Additional details are provided in Supplemental Experimental Procedures.
(§2) automated system (Becton Dick inson) and analyzed with FlowJo.

The test system of data set [2] is human mesenchymal stem cells (MSCs). The experiment in a line: cells. Particulars: read-out: IC50 (normal; MCSs); at 48 hr.
Description: as §1, §2

The subject of data set [3] is CD138+ cells from WM patients. The experiment in a line: cells. The following applies: read-out: IC50 (WM; PCs (n= 2)); at 48 hr; mean ± SEM.
Description: as §1, §2

The subject of data set [4] is CD138+ cells from MM patients. The experiment in a line: cells. The following applies: read-out: IC50 (MM; PCs (n = 8)); at 48 hr; mean ± SEM.
Description: as §1, §2

The test system of a further data set is human BMSCs. The experiment in a line: cells. The following applies: read-out: IC50 (normal; BMSCs); at 48 hr.
Description: as §1, §2

The next data set deals with mouse splenocytes. The experiment in a line: cells. The following applies: read-out: IC50 (normal; splenocytes); at 48 hr.
Description: as §1, §2

Another data set relates to human PBMCs. The experiment in a line: cells. Particulars: read-out: IC50 (normal; PBMCs); at 48 hr.
Description: as §1, §2

A short description of data set [5]: pharmacokinetics after single intravenous injection. On the procedure: The pharmacokinetic analyses of DTP3 and z-DTP2 were outsourced. Additional details are provided in Supplemental Experimental Procedures. […]
(§3) Pharmacokinetic Anal yses
In vitro and in vivo pharmacok inetic analyses were outsourced to Cypr ot ex (http://www.c yprotex.com/home/) (Figure 7A, Tables S6). In vitro pharmacok inetic assays were perf ormed according to established, in- house protocols and included: plasma stability (human), thermodynamic solubility (PBS pH 7.4, at 37 °C f or 14 days), microsomal stability (human), plasma protein binding (PPB; mouse and human), and distribution coeff icient (LogD). In vivo pharmacok inetic […]
analyses were also perf ormed at Cyprotex according to established, in- house protocols. Brief ly, the peptides were dissolved in PBS and administered by single intravenous injection t o CD1 male mice at the dose of 10 mg/kg (25 -30 g of total body weight; n=3 mice per time point per compound) . Blood samples were collected in heparinized tubes at up to 7 tim e points after this injection (i.e. 0.08, 0.25, 0.5, 1, 2, 4 and 8 hr), and the plasma concentrations of the test peptide were determined at each time point by LC-MS/ MS, using a f ive- point standard curve covering a peptide concentration range from 3 to 3,000 ng/mL. Standard curves were prepared using blank plasma matrices and treated in the same manner as the test samples. The main pharmacok inetic parameters determined in these analyses were: terminal half-lif e (t 1/2 ), plasma clearance (CL), volume of distribution (V d ), and area under the plasma concentration versus time curve (AUC) (Figure 7A, Table S6). Values were calculated from the data of the peptide plasma concentration versus time curves using a non-compartmental model analysis, as described elsewhere (Groulx, 2006; Landaw and Di Stef ano 3rd, 1982) . […]

Another data set in a line: microsomal stability. Format: in vitro ADME, human.
Description: (§4) Pharmacophore Model Building
(§5) The pharmacophore predictive
(§6) Broad- Panel Kinase Profiling
(§7) according to in-house protocols therein.
as §3
(§8) In vitro pharmacok inetic assays were […]

A further data set can be described thus: plasma protein binding. It counts as in vitro ADME. Particulars: read-out: PPB (fraction unbound).
Description: as §4, §5, §6, §7, §3, §8

The next data set in a line: plasma stability. It counts as in vitro ADME, human.
Description: as §4, §5, §6, §7, §3, §8

Data set [6] can be described thus: subcutaneous U266 myeloma xenograft (plasmacytoma model). It counts as in vivo, mice. The following applies: male, NOD/SCID (NOD.CB17-Prkdcscid/IcrCrl), mouse, plasma, sc; continual infusion 14.5 mg/kg/day; SEM, n=16; read-out: plasma concentration at the steady state.
The next data set can be described thus: tolerability in mice. The source says: Table S6, related to Figure 7. Summary of the pharmacokinetic profiles of DTP3 and z-DTP2
PK Param enters Values Drug
Values denote means ± SD (n=3) or SEM (n=5), as indicated. MW , molecular

Another data set in a line: thermodynamic solubility. Format: physicochemical. The following applies: in PBS, pH 7.4, for 14 days at 37 °C.
Description: as §4, §5, §6, §7, §3, §8

The term IC50 denotes the point on the concentration scale where inhibition reaches its midpoint. What is called AUC is the area under the concentration-time curve, a measure of exposure. Read a low AUC as low exposure. Broadly, the Vd is a proportionality between amount in the body and measured concentration, not a real space. A lower Vd goes with little distribution into tissue. What is called clearance is the volume of plasma or blood freed of the substance per unit of time. Lower therefore signals inefficient removal. What is called fraction unbound is the share of the substance not bound to proteins or other matrix. For orientation: solubility (thermodynamic) means the concentration in solution at equilibrium with solid. As for `CC(=O)N[C@H](Cc1ccc(O)cc1)C(=O)N[C@H](CCCNC(=N)N)C(=O)N[C@H](Cc1ccccc1)C(N)=O` [DTP3, Ac-YRF-NH2], the IC50 is above 100 µM in data set [1]; above 100 µM in data set [2]; above 10 µM in [3]; 0.0282 ± 0.0001 µM in [4]; above 100 µM in the data set with human BMSCs; above 100 µM in the data set with mouse splenocytes. For the same molecule, the half-maximal inhibitory concentration (IC50) in the data set on human PBMCs was above 100 µM. Moreover, in data set [5] (k0 = k1 x Vd x Cp), the “predicted dose required to achieve the therapeutic plasma concentration of 1 μM at the steady state” value is 0.81 mg/kg/h. Moreover, the AUC in data set [5] (mouse, in vivo, iv, 10 mg/kg) was determined as 6430 ± 10 ng·h/mL. In [5] (mouse, in vivo, iv, 10 mg/kg), this molecule registered a Vd of 2.8 ± 1.26 L/kg. The clearance in data set [5] (mouse, in vivo, iv, 10 mg/kg) came out at 27.1 ± 4.09 mL/min/kg. The half-life is 1.26 h in [5] (mouse, in vivo, iv, 10 mg/kg) and 4.75 h in “microsomal stability” (human, microsomes, read-out: microsomal stability (human) t½). In “microsomal stability”, the “microsomal stability (human)” value amounted to 4.87 ± 1.24 µL/min/mg protein. Also, the free fraction (fraction unbound) was determined as 0.933 ± 0.004 in the data set “plasma protein binding” (human) and 0.42 ± 0.01 in “plasma protein binding” (mouse). The “plasma stability (human)” value in the data set “plasma stability” is above 48 h. Also, the level at time molar in data set [6] was determined as 700 ± 90 nM. The “Toxicity - continual s.c. dosing (14.5 mg/kg/day for 28 days)” value in the data set “tolerability in mice” (mice, osmotic pumps) was “no apparent toxicity”. For the same molecule, the “Toxicity - single i.v. (10 mg/kg)” value in the data set “tolerability in mice” (mouse, in vivo, iv, 10 mg/kg) is “no apparent toxicity”. Moreover, the “Toxicity - oral (100 mg/kg)” value in “tolerability in mice” (mouse, in vivo, po, 100 mg/kg) is “no apparent toxicity”. In addition, the “Toxicity - single s.c. (10 mg/kg)” value in “tolerability in mice” (mouse, in vivo, sc, 10 mg/kg) is “no apparent toxicity”. The same molecule showed a solubility (thermodynamic) in the data set “thermodynamic solubility” of 169 ± 7.53 mg/mL (≈ 322 mM).
